Results as given in patent US20140221286A1, “SODIUM CHANNEL BLOCKERS REDUCE GLUCAGON SECRETION” (Gilead Sciences, Inc., priority 2011, published 2014).

Legend:
human pancreatic islets = assay: Veratridine-induced glucagon secretion in human pancreatic islets; assay type: cell-based; details: veratridine 30 μM
ZDF diabetic rats = assay: ZDF diabetic rats, animal model of type 2 diabetes; assay type: in vivo, rat; details: for water consumption (surrogate marker for diabetes) / HbA1c levels versus vehicle group / fasting plasma glucose levels versus vehicle: in Purina 5008 diet; for water consumption (surrogate marker for diabetes): during diabetes development; for HbA1c levels versus vehicle group: weeks 4, 6 and 8; for fasting plasma glucose levels versus vehicle: weeks 7 and 9
Experimental: All sections from fluorescent staining were viewed under fluorescent microscope and the stained areas were digitally photographed at a magnification of 20×. The images taken at different magnification were normalized using the standard ruler grade (S1 Finder Graticule, 68040, Electron Microscopy Science, Hatfield, Pa.). Analyses of islet areas and entire section areas were performed using ImageJ software (NIH, MD). Three sections from each of 6 animals per treatment group were analyzed. Data are presented as mean±SEM. *, p<0.05; **, p<0.01; ***, p<0.001 by One-way ANOVA.
Male ZDF Leprfa/Crl rats were received at 5 weeks of age from Charles River Laboratories Inc., (Wilmington, Mass.) and were acclimated until study initiation at 6 weeks of age. Drugs were given to the animals in Purina 5008 for 10 weeks at doses approximately 170 mg/kg/d of ranolazine, 0.6 mg/kg/d of compound A and 30 mg/kg/d of sitagliptin as positive control. Fasting (12-14 h fast) and non-fasting blood samples were obtained by tail-nick and blood glucose was measured using a Freestyle Lite glucose meter (Abbott Laboratories Inc., Abbott Park, Ill.). HbA1c levels were monitored every other week. Twenty four hour water consumption as surrogate marker for diabetes for each rat was measured at least once per week.

rat pancreatic islets [1] = assay: Arginine-induced glucagon secretion in rat pancreatic islets; assay type: cell-based; details: L-arginine 20 mM
rat pancreatic islets [2] = assay: Glucagon secretion in rat pancreatic islets under low glucose (3 mM), ELISA; assay type: cell-based; details: 3 mM glucose
α-TC1 clone 9 cells = assay type: cell-based; details: for Glucagon Secretion % Inhibition: veratridine-induced (30 μM for 1 hour), at a given concentration (not given)
Experimental: Voltage-dependent block (VDB) of […] was determined by whole-cell voltage-clamp recordings of sodium current using a QPatch 16× automated electrophysiological system in HEK 293 cells overexpressing Nav 1.3 and Nav 1.7 sodium channels, respectively. VDB of peak current was measured using an 8 s conditioning prepulse (to -55 mV for NaV1.3 and to −60 mV for […]) followed by a test pulse (0 mV, 20 ms). Currents are normalized to the peak current recorded in the absence of drug and expressed as percent inhibition. […] Glucagon secretion in the cells was induced by the treatment with veratridine at 30 μM for 1 hour in Krebs-Ringer buffer containing 0.1% BSA. Percent inhibition of glucagon secretion by Na channel blockers was calculated from the reduction of veratridine-induced glucagon secretion in the absence of drug.
Cells were seeded at 0.4×10^5/well in 96-well plates and allowed to recover for 1 day. The media was then changed to serum-free DMEM and incubated overnight. Cells were then treated with sodium-channel blockers in the presence of veratridine (15 μM) in Krebs-Ringer buffer containing 0.1% BSA and 3 mM glucose for 1 h. Supernatants were collected and stored at −80° C. until analysis. Glucagon levels were measured by an ELISA kit.

[3] = tested on: rat isolated pancreatic α-cell; assay: Spontaneous electrical activity of isolated pancreatic α-cells (membrane potential recording); assay type: cell-based
Experimental: Acutely isolated pancreatic islets were allowed to recover overnight at 37° C./5% CO2 in Islet Media (RMPI 1640 supplemented with 10 mM HEPES, 1 mM sodium pyruvate, 10% FBS, 100 U/mL penicillin, 100 μg/mL streptomycin, 2 mM L-glutamine). The islets were resuspended and then centrifuged for 3 minutes at 200×g. […] The number of live cells was counted and diluted to 1×10^5 with Islet Media. […]
Membrane potential and ion channel currents were recorded 24-72 hours after dispersion using the perforated patch configuration. […] Series resistance (Rs) was monitored using a voltage step from −70 mV to 0 mV (5 ms, 0.5 Hz) and was allowed to stabilize prior to beginning the experiment (Rs<30 MOhm).
The identity of the α-cell was confirmed using cell size (membrane capacitance <6 pF) and the presence of electrical activity in low (3 mM) extracellular glucose, which are hallmarks of dispersed α-cells. […] All recordings were made using pClamp 10.2 and were analyzed using Microsoft Excel 2003, Graphpad Prism7 or OriginPro7.
Recordings of membrane potential were made at 32° C. […] Representative records (30 sec) were analyzed using the event detection feature (threshold of 10 mV) to quantitate the spontaneous firing frequency and total charge movement. The membrane potential between events was measured for changes induced by the compound. […]

With `COc1ccccc1OCC(O)CN1CCN(CC(=O)Nc2c(C)cccc2C)CC1` (racemic) [Ranolazine, ±-N-(2,6-dimethylphenyl)-4-[2-hydroxy-3-(2-methoxyphenoxy)-propyl]-1-piperazineacetamide] as the molecule, how does the “reduction of veratridine-induced glucagon secretion” value (human pancreatic islets; at 30 μM) read?
Its value is 36±9%.

And the “insulin staining per islet” value (ZDF diabetic rats; 10 weeks treatment)?
Its value is 91.2±1.5%.

And the insulin/glucagon ratio (ZDF diabetic rats; 10 weeks treatment)?
Its insulin/glucagon ratio is 12.1±2.4.

And the islet area/pancreas area (ZDF diabetic rats; 10 weeks treatment)?
The islet area/pancreas area was 0.36±0.1%.

And the “staining of glucagon per islet versus vehicle” value (ZDF diabetic rats; 10 weeks treatment)?
Its value is “significantly less”.

And the “water consumption (surrogate marker for diabetes)” value (ZDF diabetic rats)?
Its value is “significantly prevented the increase”.

What about the “HbA1c levels versus vehicle group” value (ZDF diabetic rats) of the same molecule?
Its value is “significantly lower”.

What about the “fasting plasma glucose levels versus vehicle” value (ZDF diabetic rats) of the same molecule?
The value was “significantly lower”.

And the “reduction of L-arginine-induced increase in glucagon secretion” value (rat pancreatic islets [1]; at 10 μM)?
The value was 31±9%.

What about the “maximal reduction of glucagon secretion as compared to the vehicle control” value (rat pancreatic islets [2]; at 30 μM) of the same molecule?
Its value is 53±6%.

And the “Glucagon Secretion % Inhibition” value (α-TC1 clone 9 cells)?
The value was 29.99%.

And the “reduction of spontaneous electrical activity” value ([3]; 10 μM)?
Its value is 44%.

What does the source list for `FC(F)(F)Oc1ccc(-c2ccc3nnc(C(F)(F)F)n3c2)cc1` [Compound A, 6-(4-(trifluoromethoxy)phenyl)-3-(trifluoromethyl)-[1,2,4]triazolo[4,3-α]pyridine]?
reduction of veratridine-induced glucagon secretion (human pancreatic islets; at 3 μM): 58±7%; insulin staining per islet (ZDF diabetic rats; 10 weeks treatment): 90.0±2.8%; islet area/pancreas area (ZDF diabetic rats; 10 weeks treatment): 0.51±0.16%; staining of glucagon per islet versus vehicle (ZDF diabetic rats; 10 weeks treatment): significantly less; water consumption (surrogate marker for diabetes) (ZDF diabetic rats): significantly prevented the increase; HbA1c levels versus vehicle group (ZDF diabetic rats): significantly lower; fasting plasma glucose levels versus vehicle (ZDF diabetic rats): significantly lower; reduction of L-arginine-induced increase in glucagon secretion (rat pancreatic islets [1]; at 1 μM): 24±6%; maximal reduction of glucagon secretion as compared to the vehicle control (rat pancreatic islets [2]; at 3 μM): 53±8%; reduction of veratridine-induced increase of glucagon secretion (α-TC1 clone 9 cells; veratridine 15 μM, at 3 μM): 70±4%; Glucagon Secretion % Inhibition (α-TC1 clone 9 cells): 74.17%; reduction of spontaneous electrical activity ([3]; at 0.3 μM): 75%
